Experimental data from PubChem BioAssay (NCI).
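In this assay, cells in 96-well plates receive the compound at five concentrations for 48 hours. Endpoints are linearly interpolated between the surrounding concentrations. GI50: concentration for 50% inhibition of growth. TGI: concentration producing complete growth inhibition.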

How the values were obtained:
Test in all cases: NCI anticancer screen, dose series, 48 h
[1] = test system: SNB-19 CNS
[2] = test system: KM12 colon
[3] = test system: U251 CNS
[4] = test system: A498 renal
[5] = test system: MDA-MB-435
[6] = test system: K-562 leukemia
[7] = test system: MOLT-4 leukemia
[8] = test system: HL-60(TB) leukemia
[9] = test system: OVCAR-5 ovarian
[10] = test system: PC-3 prostate
[11] = test system: DU-145 prostate
[12] = test system: TK-10 renal
[13] = test system: UO-31 renal
[14] = test system: MCF7 breast
[15] = test system: HCT-15 colon
[16] = test system: SR leukemia
[17] = test system: MDA-MB-231 breast
[18] = test system: UACC-257 melanoma
[19] = test system: SF-295 CNS
[20] = test system: SW-620 colon
[21] = test system: OVCAR-3 ovarian
[22] = test system: EKVX NSCLC
[23] = test system: UACC-62 melanoma
[24] = test system: RXF 393 renal
[25] = test system: SF-268 CNS
[26] = test system: NCI-H226 lung
[27] = test system: HS 578T breast
[28] = test system: SN12C renal
[29] = test system: COLO 205 colon
[30] = test system: NCI-H23 lung
[31] = test system: MALME-3M melanoma
[32] = test system: 786-0 renal
[33] = test system: SK-OV-3 ovarian
[34] = test system: A549 NSCLC
[35] = test system: CAKI-1 renal
[36] = test system: HCT-116 colon
[37] = test system: OVCAR-4 ovarian
[38] = test system: T-47D breast
[39] = test system: NCI/ADR-RES ovarian
[40] = test system: SF-539 CNS
[41] = test system: NCI-H522 lung
[42] = test system: LOX IMVI melanoma
[43] = test system: OVCAR-8 ovarian
[44] = test system: HOP-62 NSCLC
[45] = test system: M14 melanoma
[46] = test system: CCRF-CEM leukemia
[47] = test system: IGROV1 ovarian
[48] = test system: SK-MEL-28 melanoma
[49] = test system: SK-MEL-5 melanoma
[50] = test system: NCI-H460 lung
[51] = test system: SK-MEL-2 melanoma
[52] = test system: HT29 colon
[53] = test system: HOP-92 NSCLC
[54] = test system: ACHN renal
[55] = test system: HCC-2998 colon
[56] = test system: RPMI-8226 leukemia
[57] = test system: SNB-75 CNS

CCOc1ccc2nc(S/C(=C/C=C(C#N)C#N)c3ccc(Cl)cc3)sc2c1
GI50 [1]: 6.72 µM
TGI [1]: 24.5 µM
GI50 [2]: 3.84 µM
TGI [2]: 15.2 µM
GI50 [3]: 0.628 µM
TGI [3]: 4.29 µM
GI50 [4]: 2.46 µM
TGI [4]: 8.6 µM
GI50 [5]: 3.18 µM
TGI [5]: 9.84 µM
GI50 [6]: 3.43 µM
TGI [6]: 18.3 µM
GI50 [7]: 1.65 µM
TGI [7]: > 100 µM
GI50 [8]: 3.08 µM
TGI [8]: 34.3 µM
GI50 [9]: 15.2 µM
TGI [9]: 28.5 µM
GI50 [10]: 4.16 µM
TGI [10]: 11.8 µM
GI50 [11]: 3.51 µM
TGI [11]: 10.7 µM
GI50 [12]: 2.91 µM
TGI [12]: 9.83 µM
GI50 [13]: 8.08 µM
TGI [13]: 27 µM
GI50 [14]: 6.56 µM
TGI [14]: 26.7 µM
GI50 [15]: 2.42 µM
TGI [15]: 8.81 µM
GI50 [16]: 1.96 µM
TGI [16]: 7.8 µM
GI50 [17]: 1.91 µM
TGI [17]: 5.08 µM
GI50 [18]: 9.1 µM
TGI [18]: 22.1 µM
GI50 [19]: 9.85 µM
TGI [19]: 28.3 µM
GI50 [20]: 0.631 µM
TGI [20]: 2.92 µM
GI50 [21]: 2.99 µM
TGI [21]: 10.9 µM
GI50 [22]: 12.9 µM
TGI [22]: 28.9 µM
GI50 [23]: 3.21 µM
TGI [23]: 12.5 µM
GI50 [24]: 5.3 µM
TGI [24]: 23.5 µM
GI50 [25]: 4.63 µM
TGI [25]: 19 µM
GI50 [26]: 3.63 µM
TGI [26]: 13.2 µM
GI50 [27]: 4.22 µM
TGI [27]: 16.8 µM
GI50 [28]: 2.86 µM
TGI [28]: 8.18 µM
GI50 [29]: 3.26 µM
TGI [29]: 11 µM
GI50 [30]: 3.1 µM
TGI [30]: 10.1 µM
GI50 [31]: 3.52 µM
TGI [31]: 21.9 µM
GI50 [32]: 1.95 µM
TGI [32]: 4.37 µM
GI50 [33]: 4.34 µM
TGI [33]: 15.3 µM
GI50 [34]: 16.4 µM
TGI [34]: 33.2 µM
GI50 [35]: 4.34 µM
TGI [35]: 15.3 µM
GI50 [36]: 0.937 µM
TGI [36]: 2.6 µM
GI50 [37]: 12.4 µM
TGI [37]: 43.8 µM
GI50 [38]: 3.91 µM
TGI [38]: 17.4 µM
GI50 [39]: 2.32 µM
TGI [39]: 5.19 µM
GI50 [40]: 3.6 µM
TGI [40]: 9.24 µM
GI50 [41]: 4.43 µM
TGI [41]: 15.2 µM
GI50 [42]: 0.546 µM
TGI [42]: 2.03 µM
GI50 [43]: 3.48 µM
TGI [43]: 10.3 µM
GI50 [44]: 4.08 µM
TGI [44]: 13.2 µM
GI50 [45]: 2.13 µM
TGI [45]: 4.61 µM
GI50 [46]: 0.57 µM
TGI [46]: 3.19 µM
GI50 [47]: 3.57 µM
TGI [47]: 13 µM
GI50 [48]: 3.81 µM
TGI [48]: 15.9 µM
GI50 [49]: 1.76 µM
TGI [49]: 3.86 µM
GI50 [50]: 7.49 µM
TGI [50]: 25 µM

S=c1[nH]n2c(Cc3ccccc3)nnc2s1
TGI [1]: > 100 µM
TGI [51]: > 100 µM
TGI [52]: > 100 µM
TGI [2]: > 100 µM
TGI [3]: > 100 µM
TGI [5]: > 100 µM
TGI [6]: > 100 µM
TGI [7]: > 100 µM
TGI [53]: > 100 µM
TGI [8]: > 100 µM
TGI [9]: > 100 µM
TGI [10]: > 100 µM
TGI [11]: > 100 µM
TGI [12]: > 100 µM
TGI [13]: > 100 µM
TGI [14]: > 100 µM
TGI [15]: > 100 µM
TGI [17]: > 100 µM
TGI [54]: > 100 µM
TGI [18]: > 100 µM
TGI [19]: > 100 µM
TGI [20]: > 100 µM
TGI [21]: > 100 µM
TGI [22]: > 100 µM
TGI [23]: > 100 µM
TGI [24]: > 100 µM
TGI [25]: > 100 µM
TGI [26]: > 100 µM
TGI [27]: > 100 µM
TGI [55]: > 100 µM
TGI [28]: > 100 µM
TGI [29]: > 100 µM
TGI [30]: > 100 µM
TGI [31]: > 100 µM
TGI [32]: > 100 µM
TGI [33]: > 100 µM
TGI [56]: > 100 µM
TGI [34]: > 100 µM
TGI [35]: > 100 µM
TGI [36]: > 100 µM
TGI [37]: > 100 µM
TGI [38]: > 100 µM
TGI [39]: > 100 µM
TGI [40]: > 100 µM
TGI [41]: > 100 µM
TGI [42]: > 100 µM
TGI [43]: > 100 µM
TGI [44]: > 100 µM
TGI [45]: > 100 µM
TGI [46]: > 100 µM
TGI [47]: > 100 µM
TGI [48]: > 100 µM
TGI [49]: > 100 µM
TGI [50]: > 100 µM

Oc1c(C(O)c2ccccn2)ccc2ccccc12 (stereo not given)
TGI [1]: > 100 µM
TGI [2]: > 100 µM
TGI [57]: > 100 µM
TGI [3]: > 100 µM
TGI [6]: > 100 µM
TGI [7]: > 100 µM
TGI [8]: 42.1 µM
TGI [10]: > 100 µM
TGI [11]: > 100 µM
TGI [13]: > 100 µM
TGI [15]: 97 µM
TGI [54]: > 100 µM
TGI [18]: > 100 µM
TGI [19]: > 100 µM
TGI [21]: > 100 µM
TGI [22]: > 100 µM
TGI [23]: 46.1 µM
TGI [24]: > 100 µM
TGI [25]: > 100 µM
TGI [26]: > 100 µM
TGI [27]: > 100 µM
TGI [55]: 59.4 µM
TGI [28]: > 100 µM
TGI [30]: > 100 µM
TGI [34]: > 100 µM
TGI [36]: > 100 µM
TGI [38]: > 100 µM
TGI [39]: > 100 µM
TGI [40]: > 100 µM
TGI [41]: 74.1 µM
TGI [42]: > 100 µM
TGI [43]: > 100 µM
TGI [44]: > 100 µM
TGI [45]: > 100 µM
TGI [46]: > 100 µM
TGI [49]: > 100 µM

Nc1cc(N)c2nc(-c3ccccc3)c(Sc3ccc(Cl)c(Cl)c3)nc2c1
GI50 [1]: 17 µM
TGI [1]: 58.1 µM
GI50 [51]: 6.2 µM
TGI [51]: 31.1 µM
GI50 [2]: 11.3 µM
TGI [2]: > 100 µM
GI50 [3]: 10.3 µM
TGI [3]: > 100 µM
GI50 [4]: 21.9 µM
TGI [4]: 49.9 µM
GI50 [5]: 18.3 µM
TGI [5]: 60.9 µM
GI50 [6]: 16 µM
TGI [6]: > 100 µM
GI50 [7]: 4.08 µM
TGI [7]: > 100 µM
GI50 [8]: 8.02 µM
TGI [8]: > 100 µM
GI50 [9]: 38.9 µM
TGI [9]: 59.5 µM
GI50 [10]: 5.78 µM
TGI [10]: 35.9 µM
GI50 [11]: 11.1 µM
TGI [11]: 25 µM
GI50 [12]: 14.6 µM
TGI [12]: 31.8 µM
GI50 [13]: 14 µM
TGI [13]: 76.7 µM
GI50 [14]: 5.3 µM
TGI [14]: 37.8 µM
GI50 [16]: 4.63 µM
TGI [16]: 35.3 µM
GI50 [17]: 16.6 µM
TGI [17]: 54.2 µM
GI50 [18]: 17.6 µM
TGI [18]: 59 µM
GI50 [19]: 17.7 µM
TGI [19]: 60.1 µM
GI50 [20]: 20.9 µM
TGI [20]: 83.6 µM
GI50 [21]: 11.7 µM
TGI [21]: 46.4 µM
GI50 [23]: 6.7 µM
TGI [23]: 42.8 µM
GI50 [24]: 14 µM
TGI [24]: 56.7 µM
GI50 [25]: 13.7 µM
TGI [25]: 51.1 µM
GI50 [26]: 3.05 µM
TGI [26]: 9.19 µM
GI50 [27]: 30 µM
TGI [27]: > 100 µM
GI50 [28]: 23.2 µM
TGI [28]: > 100 µM
GI50 [29]: 10.8 µM
TGI [29]: 33.6 µM
GI50 [30]: 12.5 µM
TGI [30]: 34.5 µM
GI50 [31]: 19.6 µM
TGI [31]: 50.3 µM
GI50 [32]: 22 µM
TGI [32]: 92.1 µM
GI50 [33]: 14.7 µM
TGI [33]: 39.4 µM
GI50 [56]: 3.81 µM
TGI [56]: 31.6 µM
GI50 [34]: 13.6 µM
TGI [34]: 51.9 µM
GI50 [35]: 14 µM
TGI [35]: 41.1 µM
GI50 [36]: 9.43 µM
TGI [36]: 47.9 µM
GI50 [37]: 20 µM
TGI [37]: > 100 µM
GI50 [38]: 13.3 µM
TGI [38]: > 100 µM
GI50 [39]: 19.1 µM
TGI [39]: 60.4 µM
GI50 [40]: 14.4 µM
TGI [40]: 41.8 µM
GI50 [41]: 7.67 µM
TGI [41]: 34 µM
GI50 [42]: 7.36 µM
TGI [42]: 24.5 µM
GI50 [43]: 24.7 µM
TGI [43]: > 100 µM
GI50 [44]: 12.4 µM
TGI [44]: 78.5 µM
GI50 [45]: 32.2 µM
TGI [45]: > 100 µM
GI50 [46]: 2.52 µM
TGI [46]: > 100 µM
GI50 [47]: 2.93 µM
TGI [47]: 27.8 µM
GI50 [48]: 13.7 µM
TGI [48]: 56.9 µM
GI50 [49]: 21.4 µM
TGI [49]: 95.5 µM
GI50 [50]: 10.5 µM
TGI [50]: 33.5 µM
